# Columns and labels:
# Cre-ER^T2 = Cre-ER^T2 (Homo sapiens, UniProt P03372, G400V/L544A/M543A); conditions: K5-Cre-ER^T2 mice; OHT dose 0.001 mg; day 2
# Protocol: (§1) Immunohistochemistry of the chimeric Cre recombinase on sections of the epidermis of K5-Cre-ER^T2 and K5-Cre-ER^T3 mice treated either with 0.1 mg, 0.01 mg or 0.001 mg of OHT and analyzed two days (D 2) after the start of the treatment (D 0). The red color corresponds to labeling with the anti-Cre antibody directed against the Cre protein, and the Cyan color corresponds to DAPI.
# (§2) After fixing in 2% paraformaldehyde, frozen sections of 10 μm are blocked in 5% normal goat serum (Vector Laboratories) incubated with the rabbit polyclonal antibody anti-MK6 (Babco). After washing in PBS/0.1% Tween 20, the sections are incubated with the donkey anti-rabbit IgG antibody conjugated with CY3 (Jackson Immuno Research) and then mounted in the Vectashield medium (Vector Laboratories) containing DAPI (4′,6-diamidino-2-phenylindole dihydrochloride; Boehringer Mannheim) (Brocard et al., 1997). The anti-Cre antibodies are used according to Indra et al. (1999). • 1.6—Immunohistochemistry
# (§3) The sensitivity to OHT was tested in a first instance by analyzing the intracellular location of the chimeric proteins.
# Cre-ER^T3 [1] = molecular target: T1, Cre-ER^T3 (Homo sapiens, UniProt P03372, L544A/M543A); conditions: K5-Cre-ER^T3 mice; OHT dose 0.001 mg; day 2
# Protocol: as §1, §2, §3
# [2] = system: fusion protein between the recombinase Cre and the ligand-binding domain of the mutated human nuclear estrogen receptor; conditions: varies between a few percents and 80%; five infections of 8 mg; cited from earlier work
# Cre-ER^T3 [3] = molecular target: T1, Cre-ER^T3; conditions: 1 and 0.1 mg of OHT; day 15
# Protocol: Activity of β-galactosidase on sections of the epidermis of the tail of K5-Cre-ER^T2(tg/0)/Rosa^f1/1 and K5-Cre-ER^T3(tg/0)/Rosa^f1/+ mice treated with 1 mg, 0.1 mg, 0.01 mg and 0.001 mg of QHT. The analyses are carried out on the fifteenth day after the start of the treatment (D0).
# as §3
# mouse ER LBD (mER) G525R = mouse ER LBD (mER) G525R (Mus musculus, UniProt P19785, G525R); conditions: cited from earlier work
# melanocytic growths = assay: Melanocytic growths and lymph node melanocytes after DMBA or DMBA/TPA treatment of CT and RXRα^ep−/− mice; type: in vivo, mouse; conditions: for mice with enlarged and pigmented subiliac lymph nodes: 30 weeks
# Protocol: A. Dorsal view of CT (K14-Cre-ER^T2(0/0)/RXRα^L2/L2) (left) and RXRα^ep−/− (right) mice 25 weeks after DMBA treatment. Arrows point to some or the melanocytic growths. B. Number of melanocytic growths in skin of CT and RXRα^ep−/− mice 30 weeks after DMBA and DMBA/TPA treatments, as indicated. Values are expressed as mean +/−SEM (n=6). *, p<0.05; ***, p<0.001, C. Size distribution of melanocytic growths in CT and RXRα^ep−/− mice. The number of 1–2 and 2–4 mm melanocytic growths was determined on CT and RXRα^ep−/− mice, 30 weeks after DMBA and DMBA/TPA treatments, as indicated. Values are expressed as mean +/−SEM (m=6).
# Photograph of subiliac lymph nodes from CT (a and e) and RXRα^ep−/− (b and f) mice taken 30 weeks after DMBA and DMBA/TPA treatment, respectively. Hematoxylin and eosin stained 5 μm paraffin sections of CT (c and g) and RXRα^ep−/− (d and h) mice after DMBA and DMBA/TPA treatments, respectively. Scale bar, 33 μm.
# Subiliac lymph nodes were isolated 30 weeks after DMBA application, fixed in 4% paraformaldehyde, photographed and embedded in paraffin. 5 μm-thick sections were stained with hematoxylin and eosin. • 1.8—Assay of blood parameters
# (§4) A single dose of 7,12-dimethylbenz(a)anthracene (DMBA) (5 μg in 100 μl acetone) was applied on the dorsal skin of 10–14 week old mice, 7 weeks before or 16 days after the first Tam or oil (vehicle) treatments. 12-0-tetradecanoylphorbol-13-acetate (TPA) (5 μg in 200 μl acetone) was applied twice a week for 25 to 30 weeks, starting one week after DMBA application. CT and RXRα^ep−/− mice were shaved 7 and 2 days before DMBA treatment, and every second week for 30 and 15 weeks, respectively. 8 weeks after DMBA treatment, all-trans retinoic acid (t-RA, 20 nmoles in ethanol) or vehicle was topically applied 15 min before each TPA application. • 1.10—Determination of the number and size of the tumors
# (§5) The length of the papillomas and the diameter of the melanocytic were measured with a Vernier calliper on isofluorane anesthesised mice.
# [4] = system: skin papilloma formation induced by DMBA/TPA; assay: Antitumoral effect of topical retinoic acid on DMBA/TPA-induced skin papilloma; type: in vivo, mouse; conditions: for average number of tumors: ~25 weeks of DMBA/TPA treatment
# Protocol: as §4, §5
# T1 sequence (P03372 with tags, fused parts or gaps M543A/L544A): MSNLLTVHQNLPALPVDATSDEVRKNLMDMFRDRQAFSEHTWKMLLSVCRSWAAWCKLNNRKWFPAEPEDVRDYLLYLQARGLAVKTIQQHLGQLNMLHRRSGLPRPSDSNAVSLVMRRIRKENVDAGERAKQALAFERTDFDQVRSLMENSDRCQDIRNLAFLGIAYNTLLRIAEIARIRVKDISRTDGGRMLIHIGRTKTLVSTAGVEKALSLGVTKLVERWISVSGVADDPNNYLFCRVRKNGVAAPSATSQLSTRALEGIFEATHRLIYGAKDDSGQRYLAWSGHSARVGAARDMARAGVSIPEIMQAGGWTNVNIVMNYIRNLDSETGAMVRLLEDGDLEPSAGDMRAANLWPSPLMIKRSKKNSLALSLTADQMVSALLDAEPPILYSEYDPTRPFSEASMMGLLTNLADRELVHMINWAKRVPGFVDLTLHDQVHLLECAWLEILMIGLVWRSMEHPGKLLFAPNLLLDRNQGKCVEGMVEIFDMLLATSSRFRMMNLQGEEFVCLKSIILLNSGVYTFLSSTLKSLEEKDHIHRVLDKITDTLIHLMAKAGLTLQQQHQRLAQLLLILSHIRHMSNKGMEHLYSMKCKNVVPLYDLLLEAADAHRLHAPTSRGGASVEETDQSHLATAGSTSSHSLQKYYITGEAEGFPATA
# Sequence of mouse ER LBD (mER) G525R (P19785 whole entry G525R, the tested form may be a part): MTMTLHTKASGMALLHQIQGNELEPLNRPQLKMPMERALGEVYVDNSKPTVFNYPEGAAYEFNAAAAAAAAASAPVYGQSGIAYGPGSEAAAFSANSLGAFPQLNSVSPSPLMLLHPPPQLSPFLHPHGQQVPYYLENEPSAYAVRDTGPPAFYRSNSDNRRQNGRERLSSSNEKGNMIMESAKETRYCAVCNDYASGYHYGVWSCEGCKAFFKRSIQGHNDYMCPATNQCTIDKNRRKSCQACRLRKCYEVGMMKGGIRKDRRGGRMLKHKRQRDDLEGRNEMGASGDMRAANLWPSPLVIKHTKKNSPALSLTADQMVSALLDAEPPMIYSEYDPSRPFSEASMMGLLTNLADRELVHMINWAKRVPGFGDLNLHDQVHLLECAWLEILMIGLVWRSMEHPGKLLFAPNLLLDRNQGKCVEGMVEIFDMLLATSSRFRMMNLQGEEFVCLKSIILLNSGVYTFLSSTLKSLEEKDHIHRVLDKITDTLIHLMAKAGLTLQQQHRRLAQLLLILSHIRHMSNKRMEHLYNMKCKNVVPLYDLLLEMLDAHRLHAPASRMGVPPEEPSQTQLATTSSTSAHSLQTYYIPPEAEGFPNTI
# Sequence of Cre-ER^T2 (P03372 with tags, fused parts or gaps G400V/M543A/L544A): as the sequence (P03372 with tags, fused parts or gaps M543A/L544A) above, with G465V counted along it
compound,measurement,setting,value
4-hydroxytamoxifen [OHT],nuclei labeled with anti-Cre antibodies in the skin,Cre-ER^T2,no positive nucleus
same,nuclei strongly labeled with anti-Cre antibodies in the basal layer of the epidermis,Cre-ER^T3 [1],about ⅓
same,efficiency of site-specific recombination in cells expressing the fusion protein,[2],≤ 80%
same,"excision levels, K5-Cre-ER^T3 versus K5-Cre-ER^T2 line",Cre-ER^T3 [3],similar
same,effect of the G525R mutation on binding,mouse ER LBD (mER) G525R,without adversely affecting the binding
"Cc1c2ccccc2c(C)c2c1ccc1ccccc12 [DMBA, 7,12-dimethylbenz(a)anthracene]","induction of melanocytic growths, RXRα^ep−/− versus CT mice",melanocytic growths; DMBA alone,~7 fold
same,mice with enlarged and pigmented subiliac lymph nodes,"melanocytic growths; DMBA, CT mice",0/4
same,mice with enlarged and pigmented subiliac lymph nodes,"melanocytic growths; DMBA, RXRα^ep−/− mice",two out of 4
same,"melanosomes per melanocyte, RXRα^ep−/− versus CT melanocytes","melanocytic growths; DMBA, electron microscopy",~10 fold
"CC1=C(/C=C/C(C)=C/C=C/C(C)=C/C(=O)O)C(C)(C)CCC1 [t-RA, all-trans retinoic acid]",tumor formation,[4]; CT mice,efficiently inhibited
same,size of the papilloma after treatment,"[4]; CT mice, 25 weeks of RA treatment, from 2–3 mm, in 3 out of 8 papillomas of 6 mice",1 mm
same,size of the tumors,[4]; RA treated CT mice,below 2 mm
same,average number of tumors,[4]; RA treated CT mice,1
same,tumors larger than 12 mm,[4]; RA treated RXRα^ep−/− mice,~11%
same,average number of tumors,[4]; RA treated RXRα^ep−/− mice,~17
same,change in size of the papilloma,[4]; RXRα^ep−/− mice,no decrease in size
same,"number and size of melanocytic growths, RXRα^ep−/− compared to CT mice",[4]; after RA treatment,increased
same,skin papilloma formation induced by DMBA/TPA,"[4]; topical, female and male wild-type 129Sv",efficiently blocked

# — patent publication US7112715B2, “Transgenic mouse for targeted recombination mediated by modified Cre-ER” (Gie-Cerbm, Centre Europeen de Recherche en Biologie et en …, priority 2000, dated 2006)
